Measurements from publication PMC5035920, “Exploring functional roles of TRPV1 intracellular domains with unstructured peptide-insertion screening” (Scientific Reports, 2016).

Assays:
[1] = target: T1, mTRPV1 (mouse TRPV1) (Mus musculus, UniProt Q704Y3, INS430GGG); assay: patch-clamp of transfected HEK293 cells, concentration-response, Hill fit; type: cell-based
T1 construct: full-length mTRPV1 cDNA in pEYFP-N3, C-terminal eYFP fusion, transiently expressed in HEK293 cells; homotetramer

[2] = target: T2, mTRPV1 (mouse TRPV1) (Mus musculus, UniProt Q704Y3); assay: as above; type: cell-based
T2 construct: full-length mTRPV1 cDNA in pEYFP-N3, C-terminal eYFP fusion, transiently expressed in HEK293 cells; homotetramer
T2 sequence (Q704Y3 whole entry, the tested form may be a part): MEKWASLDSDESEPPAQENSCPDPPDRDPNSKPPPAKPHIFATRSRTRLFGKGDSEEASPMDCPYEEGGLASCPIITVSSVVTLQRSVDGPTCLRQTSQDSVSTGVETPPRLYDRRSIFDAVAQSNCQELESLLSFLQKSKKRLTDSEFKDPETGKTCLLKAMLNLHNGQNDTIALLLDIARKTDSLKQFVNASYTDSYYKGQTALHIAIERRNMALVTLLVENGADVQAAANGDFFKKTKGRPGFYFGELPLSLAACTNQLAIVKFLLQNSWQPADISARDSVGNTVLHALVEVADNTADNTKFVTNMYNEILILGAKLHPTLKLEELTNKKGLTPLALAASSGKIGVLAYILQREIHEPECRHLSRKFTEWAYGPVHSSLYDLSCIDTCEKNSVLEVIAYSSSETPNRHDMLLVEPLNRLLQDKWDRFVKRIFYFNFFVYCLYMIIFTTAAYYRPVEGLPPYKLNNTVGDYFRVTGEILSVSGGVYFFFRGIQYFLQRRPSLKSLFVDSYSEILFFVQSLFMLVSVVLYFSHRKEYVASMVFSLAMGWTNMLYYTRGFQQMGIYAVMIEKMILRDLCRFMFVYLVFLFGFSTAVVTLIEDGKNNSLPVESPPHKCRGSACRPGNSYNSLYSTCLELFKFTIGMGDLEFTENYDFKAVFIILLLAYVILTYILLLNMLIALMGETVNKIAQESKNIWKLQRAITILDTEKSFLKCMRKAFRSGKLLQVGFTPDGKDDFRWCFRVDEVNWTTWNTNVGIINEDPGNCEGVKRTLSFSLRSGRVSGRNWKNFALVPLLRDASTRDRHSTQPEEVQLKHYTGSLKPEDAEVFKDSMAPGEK

T1 sequence (Q704Y3 with tags, fused parts or gaps INS430GGG): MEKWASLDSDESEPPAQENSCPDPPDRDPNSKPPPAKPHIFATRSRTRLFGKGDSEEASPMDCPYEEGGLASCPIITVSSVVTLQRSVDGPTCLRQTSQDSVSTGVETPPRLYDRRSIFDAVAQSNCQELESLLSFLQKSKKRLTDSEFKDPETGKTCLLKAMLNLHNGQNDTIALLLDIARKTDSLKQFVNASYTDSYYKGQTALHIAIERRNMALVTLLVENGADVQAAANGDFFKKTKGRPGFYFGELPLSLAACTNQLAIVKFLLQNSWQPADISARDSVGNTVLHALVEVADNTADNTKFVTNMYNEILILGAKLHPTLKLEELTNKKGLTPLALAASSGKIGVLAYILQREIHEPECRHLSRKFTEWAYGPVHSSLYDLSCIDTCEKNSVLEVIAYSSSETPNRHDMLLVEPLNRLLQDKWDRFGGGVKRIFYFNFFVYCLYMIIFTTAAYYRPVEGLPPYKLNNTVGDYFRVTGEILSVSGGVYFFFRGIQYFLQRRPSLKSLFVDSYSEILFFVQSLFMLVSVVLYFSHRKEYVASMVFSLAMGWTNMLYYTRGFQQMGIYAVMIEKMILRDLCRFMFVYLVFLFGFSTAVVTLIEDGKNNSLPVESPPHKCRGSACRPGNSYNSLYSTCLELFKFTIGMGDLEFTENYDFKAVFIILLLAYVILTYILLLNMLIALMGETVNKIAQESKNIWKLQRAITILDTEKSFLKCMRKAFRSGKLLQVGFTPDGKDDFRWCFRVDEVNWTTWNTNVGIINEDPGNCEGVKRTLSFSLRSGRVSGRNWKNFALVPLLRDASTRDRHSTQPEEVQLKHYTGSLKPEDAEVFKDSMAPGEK

Question: For `COc1cc(CNC(=O)CCCC/C=C/C(C)C)ccc1O` [capsaicin], which EC50 [1] is on record?
Answer: Its EC50 is 70 ± 30 nM.

Question: What about the EC50 [2] of the same compound?
Answer: The EC50 was 150 ± 20 nM.
